Measured values: patent US11555072B2, “A33 antibody compositions and methods of using the same in radioimmunotherapy” (MEMORIAL SLOAN KETTERING CANCER CENTER, priority 2017, dated 2023)

Assays:
[1] = SEC-HPLC stability test (37° C. incubation, freeze-thaw); format: physicochemical
Protocol: SEC-HPLC analysis. Size and purity of huA33-BsAb was analyzed using HPLC system (Shimadzu Scientific Instruments Inc., Columbia, Md.). Monomeric species were identified using a molecular weight standard (Bio-Rad Laboratories, Hercules, Calif.) and percent monomer was calculated based on the relative area under curve (AUC) of different non-buffer peaks.
The huA33 antibody was reformatted into bispecific format by fusing scFv of humanized OKT3 to the C-terminus of light chain via a flexible GS linker (FIG. 1(A)). The DNA construct was used to establish a CHO-S stable cell line and huA33-BsAb was purified from the supernatant. Protein yield using protein A chromatography was 50 mg/L to 100 mg/L without extensive optimization. Similar yields were observed using EXPI293™ transient expression system (data not shown). One-step protein A purification routinely produced protein with purity above 90%, as measured by SEC-HPLC.

GPA33 = target: T1, GPA33 (Homo sapiens, UniProt Q99795); test: FACS staining of tumor cell lines; format: cell-based; conditions: panel of GPA33(+) and GPA33(−) cell lines
T1 construct: endogenous in cells; host or cells: human colon cancer cell lines (e.g. LS174T, SW1222, Colo205) and gastric cancer cell line SNU16
T1 sequence (Q99795 22-319): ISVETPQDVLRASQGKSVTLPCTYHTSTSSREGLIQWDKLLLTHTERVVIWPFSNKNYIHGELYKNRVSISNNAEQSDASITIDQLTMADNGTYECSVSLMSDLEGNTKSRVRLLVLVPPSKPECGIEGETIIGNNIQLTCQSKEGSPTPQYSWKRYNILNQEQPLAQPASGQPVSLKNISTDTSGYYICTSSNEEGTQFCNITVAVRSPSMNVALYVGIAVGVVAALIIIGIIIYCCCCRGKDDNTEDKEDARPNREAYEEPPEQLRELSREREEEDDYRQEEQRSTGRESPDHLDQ
Source text: Antibodies and flow cytometry. Antibodies anti-hCD25-PE, anti-CD69-PE, anti-hCD8-APC, anti-hCD45-PECy7, anti-hCD4-PE, anti-hCD4-BV421, anti-hCD62L-PercpCy5.5, anti-hPD1-BV421, anti-hCD45RO-PECy7, were purchased from BIOLEGEND® (San Diego, Calif.). Goat anti-human IgG-PE was purchased from SouthernBiotech (Birmingham, Ala.). Streptavidin-PE, anti-hCD4-APC and anti-hCD25-APC were purchased from BD Biosciences (San Jose, Calif.). All FACS analysis was done using FACSCalibur or LSRII system (BD Biosciences, San Jose, Calif.) and analyzed using FlowJo (FLOWJO, Ashland, Oreg.).
The avidities of huA33-BsAb towards GPA33 at both 25° C. and 37° C. were measured using GPA33 immobilized CM5 chips.

T cells [2] = test: T cell activation and proliferation assay (CFSE-labeled PBMCs plus tumor cells); format: cell-based, human
Protocol: T cell proliferation assay. Fresh PBMCs from healthy donors were labeled with […] CFSE (Life Technologies Corp., Carlsbad, Calif.) for 5 min at room temperature, followed by neutralization using PBS containing 5% FBS. Target cells were then incubated with labeled PBMCs under different conditions at 37° C. before analyzing the expression of surface activation markers and T cell proliferation at 24 hours and 96 hours.
HuA33-BsAb activated and induced cell cycle entry of fresh T cells.

T cells [3] = test: Cytokines and cytolytic molecules release assay; format: cell-based, human; conditions: T cells + Colo205, E:T 5:1, over 4 days
Protocol: Cytokines and cytolytic molecules release assay. T cells were purified from PBMCs using pan T cell isolation kit (Miltenyi Biotec, Cambridge, Mass.). Target and control tumor cells were incubated with 2×10^6 cells/well at an effector to target ratio of 5:1 in 24-well plates in triplicates, with 2 ml total volume per well. Culture supernatants were collected at 24 hours, 48 hours, 72 hours and 96 hours and cytokine levels were measured with flow cytometry using LEGENDplex™ human CD8/NK Panel (BIOLEGEND®, San Diego, Calif.) according to the manufacturer's protocol.
HuA33-BsAb induced secretion of inflammatory cytokines and cytolytic molecules. The secreted cytokine profile of T cells activated by huA33-BsAb in the presence of target tumors was examined. Total T cells were purified from PBMCs and cultured in the presence of Colo205 tumor cells at an effector to target ratio of 5:1. To estimate nonspecific activation, SKMEL5 cells were used as a negative control. Cell culture supernatants were collected daily over 4 days and the levels of cytokines and cytotoxic molecules were measured using a flow cytometry based multiplex method. […] Similarly, a significant amount of IL-6 was secreted by activated T cells. Th17 cytokine IL-17a was also secreted at high levels.

[4] = tested on: GPA33-expressing cancer cells; test: T-cell dependent cytotoxicity (TDCC) assay with activated T cells; format: cell-based, human
Protocol: T-cell dependent cytotoxicity (TDCC) assays. Cytotoxicity assays were performed using both ^51Cr-release assay and Pierce LDH-release assay (Thermo Fisher Scientific, Cambridge, Mass.). For both assays, T cells activated by exposure to anti-CD3/anti-CD28 Dynabeads for 14 days were subsequently used as effector cells, excepted for sorted cells from PBMCs, which were used for TDCC assay without prior stimulation. ^51Cr assay was performed as previously described in Cheng M et al., International Journal of Cancer 136:476-486 (2015). LDH assay was conducted according to the manufacturer's instructions with the following modifications. Briefly, for each assay well of a 96-well round-bottom plate, 1.5×10^4 target cells were incubated with variable number of effector cells, depending on the intended E:T ratios. Antibodies were then added at different dilutions and the plates were incubated at 37° C. for 16 hours. Each condition was done in triplicates. Supernatant was then transferred to a flat bottom plate with reaction substrate and incubated for 30 min before reading at 490 nm, with 680 nm as a reference wavelength. EC50 values were calculated by fitting the curves to a 4-parameter nonlinear regression model using GraphPad Prism.
Cancer cells were incubated with activated T cells at an effector to target ratio of 10:1 in the presence of 10-fold serial dilutions of huA33-BsAb. GPA33(−) melanoma cell line SKMEL5 and […] cell line TC32 were used as negative controls. […] Maximal level of cytotoxicity seemed to correlate with the level of FACS staining (FIG. 1(D) and FIG. 4(A)). Moreover, TDCC induced by huA33-BsAb was potent, with EC50 values in the pM range.

## huA33-BsAb: huA33 IgG with humanized OKT3 scFv fused to light chain C-terminus, N297A and K322A; SEQ ID NO: 19 and 21
[1]; 37° C. for 4 weeks, SEC-HPLC
  percentage of monomers after incubation: only a minimal decrease in the percentage of monomers
[1]; four cycles of freeze-thaw
  SEC-HPLC profile after freeze-thaw: did not cause noticeable changes in SEC-HPLC profile
GPA33
  FACS staining of cancer cell lines: stained colon cancer cell lines and one gastric cancer cell line but not GPA33(−) neuroblastoma cell line IMR32, osteosarcoma cell line TC32 or melanoma cell line SKMEL5
T cells [2]; PBMCs + Colo205, 24 and 96 hours
  PD-1 upregulation on T cells: PD-1 upregulation was observed after 24 hours and persisted until 96 hours
T cells [2]; PBMCs + Colo205, 96 hours
  T cell division by CFSE dye dilution: observed in both CD4(+) and CD8(+) T cells after 96 hours
T cells [2]; PBMCs + Colo205, E:T 5, 1 μg/ml, 24 hours
  T cell activation (upregulation of CD25 and CD69 markers): caused activation of both CD4(+) and CD8(+) T cells
T cells [2]; SKMEL5 target cells, 96 hours
  T cell activation with GPA33(−) target cells: did not activate T cells
T cells [3]
  release of cytotoxic components (sFasL, sFas, Granzyme A, Granzyme B, Perforin, Granulysin): all released in the supernatant
  secretion of cytokines by activated T cells: both Th1 cytokines (IL-2, IFNγ, TNFα) and Th2 cytokines (IL-4, IL-10) were secreted by activated T cells
[4]; LS174T, SW1222, Colo205, SNU16, activated T cells, E:T 10:1, 16 hours
  redirected T cell killing of GPA33-expressing cancer cells: specifically kill all GPA33-expressing cancer cells
[4]; SKMEL5 and TC32, E:T 10:1
  redirected T cell killing of GPA33(−) control cells: sparing SKMEL5 and TC32
[4]; activated T cells, E:T 10:1
  TDCC EC50 values: pM range
